PubChem BioAssay AID602210 (Sanford-Burnham Center for Chemical Genomics, 2012)
Calls of active or inactive are those of the source. The rule behind the calls is not given here.

assay: modulators of 2-deoxyglucose-induced H9c2 death, dose response, myocardial damage modulator project, cell-based, ATPlite luminescence, rat, set 2 (AID 602210); settings: H9c2 rat cardiomyoblasts, 2-deoxyglucose-induced death, 2 h

Row | SMILES | IC50
1 | CCOc1ccc2nc(NC(=O)CN3CCC(n4nnc5cc(F)ccc54)CC3)sc2c1 | 15.9 µM (inactive)
2 | O=C(O)c1ccc2c(c1)S(=O)(=O)c1cc(N3CCN(c4cnccn4)CC3)ccc1C2=O | 18.6 µM (inactive)
3 | COc1ccc(N/C=C(\C#N)c2nc3ccccc3n2C)c(OC)c1 | > 79 µM (inactive)
4 | CSc1nc2ccc(S(=O)(=O)Nc3c(C)n(C)n(-c4ccccc4)c3=O)cc2s1 | 8.98 µM
5 | COC(=O)c1ccc(C(=O)OC)c(NC(=O)COC(=O)C23CC4CC(CC(O)(C4)C2)C3)c1 | 10.5 µM (inactive)
6 | CC1Nc2ncnc(N3CCN(c4ccccc4)CC3)c2N(Cc2ccc(Br)cc2)C1=O (stereo unspecified) | > 79 µM (inactive)
7 | Cc1cccc(NC(=O)c2nc[nH]c2C(=O)NCCCCNC(=O)c2[nH]cnc2C(=O)Nc2cccc(C)c2)c1 | 3.32 µM
8 | COc1cc(/C=N\NC(=O)c2cccnc2)ccc1OC(=O)c1ccccc1Cl | > 79 µM (inactive)
9 | COc1cc(/C=N/NC(=O)NC23CC4CC(CC(C4)C2)C3)ccc1OCC(N)=O | 7.76 µM
10 | O=C(N/N=C/c1cn(-c2ccccc2)nc1-c1cccnc1)c1ccccc1 | > 79 µM (inactive)
11 | COc1cc(-c2cc(NC(C)=O)c3ncc(-c4cc(OC)c(OC)c(OC)c4)n3c2)cc(OC)c1OC | 9.01 µM
12 | Cc1nn(-c2ccccc2)c(N2CCCC2)c1/C=N/NC(=O)c1cc(-c2ccccn2)nc2ccccc12 | 12.6 µM (inactive)
13 | COc1ccc(Nc2nc(C(=O)N3CCc4cc(OC)c(OC)cc4C3)cs2)cc1 | 14.2 µM (inactive)
14 | Cc1cc(C)c(S(=O)(=O)N2CCN(C(=O)c3cc(=O)[nH]c4ccccc34)CC2)c(C)c1 | 20 µM (inactive)
15 | COc1cc(/C=C/c2nc(-c3ccccc3O)n[nH]2)cc(OC)c1OC | > 79 µM (inactive)
16 | C[C@@H]1ON(C)[C@H]2C[C@H]3c4[nH]c5ccc(-c6ccc7c(c6)OCO7)cc5c4CCN3C[C@@H]12 | > 79 µM (inactive)
17 | Cc1ccc(S(=O)(=O)N2CCN(C(=O)c3cc(=O)[nH]c4ccccc34)CC2)c(C)c1 | 23 µM (inactive)
18 | COc1ccc(C(C(=O)NCc2ccccc2)N(Cc2cccs2)C(=O)c2cnccn2)cc1 (stereo unspecified) | 23 µM (inactive)
19 | CC(=O)Nc1cccc(-c2cc(NC=O)c3ncc(-c4ccc(C(C)=O)cc4)n3c2)c1 | 13.6 µM (inactive)
20 | COc1ccc(Cl)cc1NC(=O)CCS(=O)(=O)c1cc2c(cc1C)NC(=O)CO2 | 26 µM (inactive)
21 | COc1ccc(OCC(O)Cn2c(Br)nc3c2c(=O)[nH]c(=O)n3C)cc1 (stereo unspecified) | 38.1 µM (inactive)
22 | Cc1ccc(C(=O)Nc2cccc(C(F)(F)F)c2)cc1NC(=O)c1csc(-c2ccncc2)n1 | > 79 µM (inactive)
23 | CC(=O)c1ccc(-c2[nH]c3ccccc3c2CCN2C(=O)c3ccccc3C2=O)cc1 | > 79 µM (inactive)

Row | SMILES | IC50
24 | Cn1c(=O)n(CCc2ccccc2)c(=O)c2c1nc1n2CCN1Cc1ccco1 | 19.3 µM (inactive)
25 | CCN(CC)S(=O)(=O)c1ccc(Nc2nc3ccccc3n3nnnc23)cc1 | 7.9 µM
26 | CCOC(=O)C1CCN(C(=O)c2ccc3c(=O)n4nc(Nc5ccccc5OC)sc4nc3c2)CC1 | 15.9 µM (inactive)
27 | COC(=O)c1cc2c(-c3ccccc3)cc3ccccn3c-2c1C(=O)OC | 12.7 µM (inactive)
28 | COC(=O)c1cc2c(C)c(C)c3ccccn3c-2c1C(=O)OC | 7.29 µM
29 | COc1cc(/C=C/c2nnc3c4ccccc4ncn23)cc(OC)c1OC | 7.24 µM
30 | CC(C(=O)NC1CCCC1)N(C(=O)Cn1nnc(-c2ccc(F)cc2)n1)c1ccccc1F (stereo unspecified) | 11.3 µM (inactive)
31 | CCN(CC)C(=O)c1ccc2c3c(cccc13)C(=O)N(CCc1ccc(OC)c(OC)c1)C2=O | 25 µM (inactive)
32 | COc1ccc2oc(C(=O)Nc3ccc(N4CCOCC4)cc3)c(C)c2c1 | > 79 µM (inactive)
33 | COc1ccc(C=CC(=O)c2ccc3cc(OC)c(OC)cc3c2)cc1OC | 11.7 µM (inactive)
34 | O=C(NC1CCCCC1)C(c1ccc2ncccc2c1)N(Cc1cccs1)C(=O)c1cccs1 (stereo unspecified) | 27.4 µM (inactive)
35 | CC(C)(C)C(=O)Nc1ccc(C(=O)N/N=C/c2ccccc2OC(=O)c2ccccc2)cc1 | > 79 µM (inactive)
36 | O=C(CSc1ccc2nnc(-c3ccc(F)cc3)n2n1)N1CCCc2ccccc21 | 16.8 µM (inactive)
37 | COc1cc(C(=O)Nc2ccc(NC(=O)c3ccco3)nc2)cc(OC)c1OC | 38.5 µM (inactive)
38 | O=C(NCC(=O)N(Cc1cccs1)C(C(=O)NC1CCCC1)c1ccco1)c1cccs1 (stereo unspecified) | 24.5 µM (inactive)
39 | COc1ccccc1OP(=O)(Nc1cccnc1)Oc1ccccc1OC | 8.19 µM
40 | Cc1ccc2cc3c(NC(=O)c4cccnc4)nn(C)c3nc2c1 | 18.5 µM (inactive)
41 | COc1ccc(Nc2nnc(-c3ccc(O)cc3)c3ccccc23)cc1C(N)=O | > 79 µM (inactive)
42 | N#Cc1c(-c2ccco2)cc(-c2ccccn2)nc1N | 37.2 µM (inactive)
43 | COC(=O)c1cc(NC(=O)c2cc3ccccc3o2)cc(C(=O)OC)c1 | 23.9 µM (inactive)
44 | COc1cc(NC(=O)c2cc3ccccc3cc2OC)ccc1NC(=O)c1cccs1 | 3.78 µM
45 | COc1cc(OC)cc(-c2cc3nc(C)c(CCC(=O)Nc4nc(C)cs4)c(C)n3n2)c1 | 6.24 µM
46 | CC(=NO)C1CCC2C3CCC4CC(=NO)CCC4(C)C3C(C)(O)CC12C (stereo unspecified) | 22 µM (inactive)
